Source: patent publication US20260218130A1, “METHOD FOR CULTURING ANIMAL CELLS” (Ajinomoto Co., Inc., priority 2023, published 2026)

Key:
[1] = test system: bovine muscle stem cells; assay: Proliferation of bovine muscle stem cells in serum-free medium; format: cell-based; conditions: FIG. 1
Source text: Muscle tissue was collected from edible bovine shank meat, and CD56-positive cells were isolated using a Magnetic-Activated Cell Sorting (MACS) system to obtain bovine muscle stem cells. The bovine muscle stem cells obtained in (1-1) were suspended in a serum medium. As the serum medium, a medium was used in which Advanced DMEM (Thermo Fisher Scientific, Cat No. 12491015) was supplemented with 20% FBS (Thermo Fisher Scientific, Cat No. 10270106), 10% horse serum (Thermo Fisher Scientific, Cat No. 16050-130), and 1% GlutaMAX™ Supplement (Thermo Fisher Scientific, Cat No. 35050061). The cell suspension was seeded into a 12-well plate (BD FALCON, Cat #353046) coated with 1 μg/cm^2 fibronectin (Corning, Cat #F2006) at a cell density of 25,000 cells/0.2 mL, and the medium was changed every other day. On the fourth day of culture, the cells were subcultured into a hinokitiol-containing serum-free medium, a hinokitiol- and iron-containing serum-free medium, an iron-containing serum-free medium, a transferrin- and iron-containing serum-free medium, a transferrin-containing serum-free medium, or a serum-free medium not containing hinokitiol and transferrin, and the medium was changed every other day. […] Cell counting and subculturing were performed every 4 days, and the growth rate for two consecutive passages from day 4 to day 12 was calculated.

[2] = test system: porcine subcutaneous preadipocytes (PSPA); assay: Proliferation of porcine subcutaneous preadipocytes (PSPA) in serum-free medium; format: cell-based; conditions: hinokitiol 0.25 or 0.5 μM + FeSO4•7H2O 1 μM, serum-free medium (transferrin-free); 4 days; FIG. 2
Method: As the porcine subcutaneous preadipocytes (PSPA), an adipose precursor cell line derived from porcine fetal subcutaneous tissue, described in Nakajima, et al. Biochem Biophys Res Commun. 2003 Sep. 26; 309(3): 702-8, was obtained from RIKEN RCB and used. The porcine subcutaneous preadipocytes (PSPA) from (2-1) were cultured using a serum medium. As the serum medium, a medium was used in which DMEM (Gibco, Cat No. 10313-021) was supplemented with 10% FBS (Thermo Fisher Scientific, Cat No. 10270106), 1% GlutaMAX™ Supplement (Thermo Fisher Scientific, Cat No. 35050061), and 1% Penicillin-Streptomycin (Nacalai Tesque, Cat No. 09367-34). As the serum-free medium, a medium based on the aforementioned E8 medium was used. PSPA were seeded into a 12-well plate at a density of 10,000 cells/cm^2, and the cells were subcultured into a serum medium, a transferrin-containing serum-free medium, or a hinokitiol- and iron-containing serum-free medium (transferrin-free), with medium exchange performed every other day. Cell counting was performed 4 days after the start of culturing, and the fold increase in cell number was calculated.

[3] = test system: CD8-positive human T cells; assay: Proliferation of CD8-positive human T cells in serum-free medium; format: cell-based; conditions: hinokitiol 0.49 or 0.0049 μM, cell count after 7 days, FIG. 4
Method: CD3 Monoclonal Antibody (Thermo Fisher Scientific, Cat No. 16-0037-85) was mixed with PBS and added to a 24-well plate. After incubating at 37° C. for 1 hour, the plate was washed 3 times with PBS. As a base medium, CTS™ OpTmizer™ T Cell Expansion (Thermo Fisher Scientific, Cat No. A104851) supplemented with CTS™ Immune Cell SR (Thermo Fisher Scientific, Cat No. A2596101), 200 mM L-glutamine (Thermo Fisher Scientific, Cat No. 25030081), P/S/Amphotericin B (Fujifilm-Wako, Cat No. 161-23181), and IL2 (PeproTech, Cat No. 200-02) was used. In the coated 24-well plates, medium groups with hinokitiol added as shown in Table 3 were prepared, and CD8+ T cells (LONZA, Cat No. 2W-300) were cultured in each respective group. A cell count was performed after 7 days, and the proliferation rate was calculated.

[4] = test system: HEK293 cells; assay: Proliferation of HEK293 cells in suspension culture system; format: cell-based, human; conditions: hinokitiol 500 nM in Basal 10 or in-house medium, 20 days, FIG. 3
Method: As HEK293, Viral Production Cells 2.0 (Thermo Fisher Scientific: A49784), which is a clonal cell line derived from the HEK293 cell line, was used. The HEK293 cell line is widely known as a cell line derived from human embryonic kidney.
Using a 125 mL Erlenmeyer flask (VIOLAMO, SEF125V), Viral Production Cells 2.0, a clonal cell line derived from the HEK293 cell line, were seeded into 30 ml of Viral Production Medium (Thermo Fisher Scientific: A4817901) supplemented with GlutaMAX™ Supplement (Thermo Fisher Scientific, Cat No. 35050061) to a final concentration of 4 mM.
The cells were cultured with agitation in an incubator set at 37° C. and 8% CO2, and were subcultured twice. Thereafter, the cells were subcultured and cultured in a medium based on 30 mL of Basal 10 (Ajinomoto Healthy Supply, Co., Inc., CELLIST™ Basal media BASAL10) or an in-house medium supplemented with hinokitiol to a final concentration of 500 nM. The process of measuring the viable cell count every 3 or 4 days using a Vi-CELL BLU Cell Viability Analyzer (Beckman Coulter) before subculturing was repeated, and the cells were cultured for a total of 20 days.

SMILES: CC(C)c1cccc(=O)c(O)c1 [hinokitiol]
- cell proliferation-promoting effect on enhancing the iron concentration ([1]; hinokitiol 0.03 or 0.30 μM + FeSO4•7H2O 1.0 or 10.1 μM, serum-free medium, in some cases): further improved
- cell proliferation (fold increase, growth rate for two consecutive passages) ([1]; hinokitiol 0.03 or 0.30 μM in E8-based serum-free medium, transferrin-free, day 4 to day 12): cell proliferation-promoting effect
- cell proliferation (fold increase in cell number) [2]: cell proliferation-promoting effect
- cell proliferation (fold increase, proliferation rate) [3]: cell proliferation-promoting effect
- cell proliferation (viable cell count) [4]: cell proliferation-promoting effect
